Here are results for one molecule from paper PMC5938390, “Tachyplesin Causes Membrane Instability That Kills Multidrug-Resistant Bacteria by Inhibiting the 3-Ketoacyl Carrier Protein Reductase FabG” (Frontiers in Microbiology, 2018).

The test system of data set [1] is Escherichia coli strain DH5α. Put plainly: Stability in sterile deionized water, read out as MIC against DH5α. To be noted: 37°C, 2 mg/ml, stability judged by MIC against DH5α. Format: physicochemical. The method, then:
(§1) These studies were carried out as we previously reported with slight modifications and briefly introduced as follows ([Liu et al., 2017]). […] Cytotoxicity in different cell lines was assessed using the Cell Proliferation Kit II (XTT) (Roche), and cytotoxicity in hemocytes was evaluated by the increase in the absorbance at 540 nm after peptide incubation. Membrane rupture was indicated by the entrance of the DNA-binding fluorescent dye PI into MDR clinical isolates of P. aeruginosa strain 1409. Membrane translocation of N-terminal FITC-conjugated tachyplesin III (purity ≥ 95%, synthesized by GL Biochem Co., Ltd, Shanghai, China) into MDR clinical isolates of Acinetobacter baumannii strain 1408 were detected by confocal laser-scanning microscopy.
(§2) Tachyplesin III (2 mg/ml) was incubated in either sterile deionized water or mouse serum at 37°C for various lengths of time, aliquots were taken, and MICs against DH5α cells were tested. Stability of the MIC indicates the stability of tachyplesin III.

The subject of data set [2] is P. aeruginosa strain 1409. Put plainly: Membrane rupture by propidium iodide staining. It counts as cell-based, Pseudomonas aeruginosa. The note with it: LB medium, 25°C, 1 h, then PI 10 μg/ml 30 min. The method, then:
as §1
After centrifugation at 3000 g for 10 min, cells were resuspended in the same volume of PBS (phosphate-buffered saline, 8 g/L NaCl, 0.2 g/L KCl, 1.44 g/L Na2HPO4, 0.24 g/L KH2PO4, pH 7.4). Then, PI was added to a final concentration of 10 μg/ml. After 30 min of incubation at 25°C, the cells were washed three times with PBS and immediately imaged with a fluorescence microscope.

In data set [3] the test system is E. coli 513. Put plainly: MIC against clinical isolate. It counts as cell-based, Escherichia coli.
The target of data set [4] is T1, FabG from S. aureus (Staphylococcus aureus, UniProt P0A0H9).
T1 construct: His tag (C); made in house; host or cells: E. coli BL21 DE3 (vector pET28a)
T1 sequence (P0A0H9 1-246): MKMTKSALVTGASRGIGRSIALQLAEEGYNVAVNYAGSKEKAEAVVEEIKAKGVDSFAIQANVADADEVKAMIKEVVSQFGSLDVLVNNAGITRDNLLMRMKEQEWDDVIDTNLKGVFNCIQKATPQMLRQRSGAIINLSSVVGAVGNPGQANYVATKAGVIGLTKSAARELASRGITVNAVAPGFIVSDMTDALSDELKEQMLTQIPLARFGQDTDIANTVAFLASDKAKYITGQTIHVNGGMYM
In words: FabG enzyme activity inhibition assay (NADPH consumption, A340). It counts as biochemical. The note with it: higher concentrations (7.5 and 15 μM) of peptide, 6 μM FabG, 5 min, room temperature. The method, then:
A 96-well plate with a final total volume of 200 μl per reaction was used for the FabG inhibition assay. Briefly, tachyplesin III (15, 7.5, and 3.75 μM) was incubated with 1.5 μM FabG from E. coli or 6 μM FabG from S. aureus at room temperature for 5 min, before the addition of 300 μM nicotinamide adenine dinucleotide phosphate (NADPH, Sigma) and then 150 μM acetoacetyl-CoA (Sigma) to initiate the reaction. The decrease in absorbance at 340 nm was recorded over 5 min to reflect the consumption of NADPH.
FIGURE 7 Tachyplesin III binding with FabG inhibits its enzyme activities in vitro, probably by blocking the active site. Binding interactions between tachyplesin III and FabG from E. coli (A) or from S. aureus (E) were analyzed by surface plasmon resonance (SPR) with a Biocore 3000 (Biocore, Piscataway, NJ, United States). Black line: 1.25 μg/mL FabG; green line: 2.5 μg/mL FabG; purple line: 5 μg/mL FabG; and red line: 10 μg/mL FabG. […] Tachyplesin was processed with Chemdraw 11.0 according to the structure of tachyplesin I (PDB code 2RTV) and then docked to the active site of FabG from E. coli (PDB code 1Q7B) or S. aureus (PDB code 3SJ7) with AutoDock4 using the default settings. […] Statistical significance was analyzed by one-way ANOVA followed by the Newman–Keuls multiple-comparisons test, ^∗∗p < 0.01, ^∗p < 0.05.

The test system of data set [5] is A. baumannii 1408. In words: MIC against MDR clinical isolate. Format: cell-based, Acinetobacter baumannii.
Data set [6] deals with P. aeruginosa 1409. Put plainly: MIC against MDR clinical isolate. It counts as cell-based, Pseudomonas aeruginosa. To be noted: P. aeruginosa 1409.
Data set [7] deals with T2, FabG from E. coli (Escherichia coli, UniProt P0AEK2).
T2 construct: His tag (N); made in house; host or cells: E. coli BL21 DE3 (vector pET28a)
T2 sequence (P0AEK2 1-244): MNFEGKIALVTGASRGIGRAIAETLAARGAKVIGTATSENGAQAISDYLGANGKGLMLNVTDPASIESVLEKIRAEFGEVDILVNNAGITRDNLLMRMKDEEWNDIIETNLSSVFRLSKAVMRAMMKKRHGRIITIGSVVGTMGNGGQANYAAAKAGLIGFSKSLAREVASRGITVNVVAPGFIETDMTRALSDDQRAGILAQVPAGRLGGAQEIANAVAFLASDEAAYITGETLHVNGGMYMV
Put plainly: Surface plasmon resonance binding. To be noted: tachyplesin III on CM5 chip, FabG 1.25-10 μg/mL injected, HBS-N buffer. The method, then:
(§3) N-terminal His-tagged FabG from E. coli and C-terminal His-tagged FabG from Staphylococcus aureus were cloned into the NcoI and XhoI cloning sites of the vector pET28a, expressed in BL21 DE3 E. coli and further purified with Ni resin ([Kristan et al., 2009]; [Srinivas and Cronan, 2017]). The binding interaction between tachyplesin III and FabG was analyzed by surface plasmon resonance (SPR) with a Biocore 3000 (Biocore, Piscataway, NJ, United States). Briefly, tachyplesin III was adsorbed onto a CM5 sensor chip using an amine-coupling kit (GE Healthcare, Little Chalfont, United Kingdom) to obtain approximately 1000 resonance units. […] The binding affinity of FabG for tachyplesin III was determined by BIAevaluation 3.0 software (Biacore) with a 1:1 Langmuir binding model for the kinetic calculation ([Wei et al., 2013]).
(§4) FIGURE 7 Tachyplesin III binding with FabG inhibits its enzyme activities in vitro, probably by blocking the active site. Binding interactions between tachyplesin III and FabG from E. coli (A) or from S. aureus (E) were analyzed by surface plasmon resonance (SPR) with a Biocore 3000 (Biocore, Piscataway, NJ, United States). […] Statistical significance was analyzed by one-way ANOVA followed by the Newman–Keuls multiple-comparisons test, ^∗∗p < 0.01, ^∗p < 0.05.
Background: Surface plasmon resonance follows binding to a sensor surface in real time, without labels.

Data set [8] addresses T1, FabG from S. aureus. Put plainly: Surface plasmon resonance binding. To be noted: tachyplesin III on CM5 chip, FabG 1.25-10 μg/mL injected, HBS-N buffer. The method, then: as §3, §4
Data set [9] concerns Escherichia coli strain DH5α. The note with it: 37°C, 2 mg/ml, stability judged by MIC against DH5α, tested during the first 6 h. The method, then: as §1, §2

Positions of bridges follow the written chain, without caps; N, C: chain ends. Residues, ends and D or L forms follow the SMILES beside them.

Regarding `CC[C@H](C)[C@@H]1NC(=O)CNC(=O)[C@H](CCCNC(=N)N)NC(=O)[C@H](Cc2ccc(O)cc2)NC(=O)[C@@H]2CSSC[C@H](NC1=O)C(=O)N[C@@H](Cc1ccc(O)cc1)C(=O)N[C@@H](CCCNC(=N)N)C(=O)N[C@@H](CCCCN)C(=O)N[C@H](C(=O)N[C@@H](CCCNC(=N)N)C(N)=O)CSSC[C@H](NC(=O)[C@H](Cc1c[nH]c3ccccc13)NC(=O)[C@@H](N)CCCCN)C(=O)N[C@@H](Cc1ccccc1)C(=O)N[C@@H](CCCNC(=N)N)C(=O)N[C@@H](C(C)C)C(=O)N2` [tachyplesin III] (H-KWCFRVCYRGICYRKCR-NH2; disulfide 3-16, 7-12 (inferred); N-terminus and C-terminus assumed), the “time stable in sterile deionized water” value in data set [1] is approximately 48 h. Moreover, the “membrane integrity (PI fluorescence)” value in data set [2] (1/4× MIC) is listed as “slight membrane breakage in a small proportion of the treated bacteria”; in data set [2] (4× MIC (high concentration)) it was “complete membrane breakage of nearly all of the treated bacteria”. Moreover, the “16 μg/ml tachyplesin III expressed as multiple of MIC” value in data set [3] stood at 4 × MIC; in data set [5], 1 × MIC; in data set [6] it was 2 × MIC. Also, the FabG activity entry in data set [4] is “almost completely blocked”. In addition, the “binding with FabG (SPR)” value in data set [7] and in data set [8] was “could bind” each time. In data set [9], the “time stable in mouse serum” value is “at least 6 h”.
